The target of data set [1] is T1, SARS-CoV-2 Spike-RBD (lambda) / ACE2 (Homo sapiens, UniProt Q9BYF1).
T1 construct: a SARS-CoV-2 RBD protein containing a C-terminal His tag; a full-length ACE2 peptide with a C-terminal Fc tag; purchased Sino Biological
The experiment in a line: biochemical. The class given is binding.

Data set [2] addresses T2, SARS-CoV-2 Spike-RBD (delta) / ACE2 (Homo sapiens, UniProt Q9BYF1).
T2 construct: a SARS-CoV-2 RBD protein containing a C-terminal His tag; a full-length ACE2 peptide with a C-terminal Fc tag; purchased Sino Biological
The experiment in a line: biochemical. The class given is binding.

The target of data set [3] is T3, SARS-CoV-2 Spike-RBD (ancestral, WT) / ACE2 (Homo sapiens, UniProt Q9BYF1).
T3 construct: a SARS-CoV-2 RBD protein containing a C-terminal His tag; a full-length ACE2 peptide with a C-terminal Fc tag; purchased Sino Biological
The experiment in a line: biochemical. The class given is binding. To be noted: IC50 Spike/ACE2.

In another data set the target is T4, human PD-1 / human PD-L1 (Homo sapiens, UniProt Q15116+Q9NZQ7).
T4 construct: purchased Sino Biological
The experiment in a line: AlphaScreen PD-1-PD-L1 binding assay. As to conditions: unrelated ligand-receptor pair. For orientation: Bead proximity is the source of the signal in Alpha formats.

Data set [4] deals with T5, SARS-CoV-2 Spike-RBD (beta) / ACE2 (Homo sapiens, UniProt Q9BYF1).
T5 construct: a SARS-CoV-2 RBD protein containing a C-terminal His tag; a full-length ACE2 peptide with a C-terminal Fc tag; purchased Sino Biological
In words: biochemical. Format: binding.

Data set [5] deals with T6, SARS-CoV-2 Spike-RBD (omicron) / ACE2 (Homo sapiens, UniProt Q9BYF1).
T6 construct: a SARS-CoV-2 RBD protein containing a C-terminal His tag; a full-length ACE2 peptide with a C-terminal Fc tag; purchased Sino Biological
The experiment in a line: biochemical. Format: binding.

Where two headings read alike, the source gives them in different places.

T5 sequence (Q9BYF1 18-740): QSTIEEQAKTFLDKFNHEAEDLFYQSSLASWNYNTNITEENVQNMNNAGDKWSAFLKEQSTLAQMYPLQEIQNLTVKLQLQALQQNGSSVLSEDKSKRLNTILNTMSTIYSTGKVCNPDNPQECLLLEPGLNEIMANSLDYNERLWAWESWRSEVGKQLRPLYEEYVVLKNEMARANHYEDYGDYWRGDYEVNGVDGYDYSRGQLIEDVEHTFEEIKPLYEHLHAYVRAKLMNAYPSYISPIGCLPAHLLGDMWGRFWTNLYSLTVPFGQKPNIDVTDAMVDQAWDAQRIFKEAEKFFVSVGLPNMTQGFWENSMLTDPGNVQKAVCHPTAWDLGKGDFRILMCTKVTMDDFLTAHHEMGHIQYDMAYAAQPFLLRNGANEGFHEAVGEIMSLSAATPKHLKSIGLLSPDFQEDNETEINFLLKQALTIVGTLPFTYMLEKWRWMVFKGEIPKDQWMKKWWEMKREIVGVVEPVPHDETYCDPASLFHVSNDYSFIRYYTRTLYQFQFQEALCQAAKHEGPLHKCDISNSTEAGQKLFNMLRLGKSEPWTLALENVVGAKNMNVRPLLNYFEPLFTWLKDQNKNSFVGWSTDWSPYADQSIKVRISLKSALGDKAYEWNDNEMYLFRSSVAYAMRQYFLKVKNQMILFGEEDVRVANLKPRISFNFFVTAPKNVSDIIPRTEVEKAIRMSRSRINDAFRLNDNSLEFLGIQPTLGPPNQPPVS
T2 sequence (Q9BYF1 18-740): as above
T6 sequence (Q9BYF1 18-740, change not shown): as the sequence (Q9BYF1 18-740) above
T1 sequence (Q9BYF1 18-740): as above
T3 sequence (Q9BYF1 18-740): as above
T4 sequence (Q15116 25-167 limits assumed): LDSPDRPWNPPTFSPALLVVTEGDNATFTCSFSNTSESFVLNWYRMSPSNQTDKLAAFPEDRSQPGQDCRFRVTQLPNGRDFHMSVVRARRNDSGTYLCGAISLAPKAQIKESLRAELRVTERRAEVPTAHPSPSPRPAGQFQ
T4 sequence (Q9NZQ7 19-239 limits assumed): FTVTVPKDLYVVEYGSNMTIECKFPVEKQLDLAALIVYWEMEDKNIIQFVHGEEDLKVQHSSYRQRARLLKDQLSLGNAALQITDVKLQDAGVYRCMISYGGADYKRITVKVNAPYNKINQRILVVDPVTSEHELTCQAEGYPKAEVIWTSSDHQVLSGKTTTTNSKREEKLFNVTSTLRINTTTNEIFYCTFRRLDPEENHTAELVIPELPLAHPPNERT

Usually melting point stands for the temperature of the solid-liquid transition. For the compound `O=C1Nc2ccc(Cl)cc2C1=NNc1ccc([N+](=O)[O-])cc1[N+](=O)[O-]` [H2L, 5-chloro-3-(2-(2,4-dinitrophenyl)hydrazono)indolin-2-one], the melting point was greater than 350 °C. This compound also returned an IC50 in data set [1] of 628 nM. For the same compound, the IC50 in data set [2] was 464 nM. The same compound had an IC50 in data set [3] of 260 nM. This compound also gave an IC50 at human PD-1 / human PD-L1 of 2060 nM. Moreover, the IC50 in data set [4] was determined as 490 nM. In data set [5], this compound displayed an IC50 of 615 nM.

With REGN10933, the IC50 was 0.8 nM in data set [1] (read-out: IC50 spike RBD/ACE2 binding, Lambda RBD sequence); 1.4 nM in data set [2] (read-out: IC50 spike RBD/ACE2 binding, Delta RBD sequence); 90.9 nM in data set [4] (read-out: IC50 spike RBD/ACE2 binding, Beta RBD sequence); greater than 700 nM in data set [5] (read-out: IC50 spike RBD/ACE2 binding, Omicron RBD sequence). Further, the “fold weaker against the beta RBD” value in data set [4] is given as ~ 70 fold.

These data come from article PMC11055700 (Chemicke Zvesti, 2024).
